What was measured:
Format in all cases: cell-based
[1] = tested on: A375 (Amelanotic Melanoma); experiment: Cell viability analysis (WST-1), A375; settings: Table 4, repeated experiments, drug 10 μM; for viability at 10 µM: Homo sapiens, A-375, 72 h, WST-1, read-out: survival rate (viability) of cancer cells, A375
[2] = tested on: HCT116 (Colorectal Carcinoma); experiment: Cell viability analysis (WST-1), HCT116; settings: Table 4, repeated experiments, drug 10 μM; for viability at 10 µM: Homo sapiens, HCT-116, 72 h, WST-1, read-out: survival rate (viability) of cancer cells, HCT116
[3] = tested on: HepG2 (Hepatocellular Carcinoma); experiment: Cell viability analysis (WST-1), HepG2; settings: Table 4, repeated experiments, drug 10 μM; for viability at 10 µM: Homo sapiens, HepG2, 72 h, WST-1, read-out: survival rate (viability) of cancer cells, HepG2
[4] = tested on: HeLa (Cervix Adenocarcinoma); experiment: Cell viability analysis (WST-1), HeLa; settings: Table 4, repeated experiments, drug 10 μM; for viability at 10 µM: Homo sapiens, HeLa, 72 h, WST-1, read-out: survival rate (viability) of cancer cells, HeLa
[5] = tested on: AGS (Gastric Adenocarcinoma); experiment: Cell viability analysis (WST-1), AGS; settings: Table 4, repeated experiments, drug 10 μM; for viability at 10 µM: 72 h, WST-1, read-out: survival rate (viability) of cancer cells, AGS
[6] = tested on: H1650 (Lung Adenocarcinoma); experiment: Cell viability analysis (WST-1), H1650; settings: Table 4, repeated experiments, drug 10 μM; for viability at 10 µM: Homo sapiens, NCI-H1650, 72 h, WST-1, read-out: survival rate (viability) of cancer cells, H1650
[7] = tested on: MKN-45 (Gastric Adenocarcinoma); experiment: Cell viability analysis (WST-1), MKN-45; settings: Table 4, repeated experiments, drug 10 μM; for viability at 10 µM: Homo sapiens, MKN-45, 72 h, WST-1, read-out: survival rate (viability) of cancer cells, MKN-45
[8] = tested on: TSGH-8301 (Urinary Bladder Carcinoma); experiment: Cell viability analysis (WST-1), TSGH-8301; settings: Table 4, repeated experiments, drug 10 μM; for viability at 10 µM: 72 h, WST-1, read-out: survival rate (viability) of cancer cells, TSGH-8301
[9] = tested on: A549 (Lung Adenocarcinoma); experiment: Cell viability analysis (WST-1), A549; settings: Table 4, repeated experiments, drug 10 μM; for viability at 10 µM: Homo sapiens, A549, 72 h, WST-1, read-out: survival rate (viability) of cancer cells, A549
[10] = tested on: MCF7 (Mammary Gland, Adenocarcinoma); experiment: Cell viability analysis (WST-1), MCF7; settings: Table 4, repeated experiments, drug 10 μM; for viability at 10 µM: Homo sapiens, MCF7, 72 h, WST-1, read-out: survival rate (viability) of cancer cells, MCF-7
[11] = tested on: PC3 (Prostate Adenocarcinoma); experiment: Cell viability analysis (WST-1), PC3; settings: Table 4, repeated experiments, drug 10 μM; for viability at 10 µM: 72 h, WST-1, read-out: survival rate (viability) of cancer cells, PC-3
[12] = tested on: LoVo (Colorectal Adenocarcinoma); experiment: Cell viability analysis (WST-1), LoVo; settings: Table 4, repeated experiments, drug 10 μM; for viability at 10 µM: Homo sapiens, LoVo, 72 h, WST-1, read-out: survival rate (viability) of cancer cells, LoVo
T24 = experiment: Cell viability analysis (WST-1), T24; settings: Table 4, repeated experiments, drug 10 μM; for viability at 10 µM: Homo sapiens, T-24, 72 h, read-out: survival rate (viability) of cancer cells, T24
Outline: (§1)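 Absorbance at OD450 nm after WST-1 incubation gave the survival rate. Cells (3000/well) were exposed to drug at 10 μM for 72 hours, then given WST-1 diluted 9:1 in medium for 30 to 90 minutes at 37° C.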

Hep3B = experiment: Cell viability analysis (WST-1), Hep3B; settings: Table 4, repeated experiments, drug 10 μM; for viability at 10 µM: Homo sapiens, Hep3B, 72 h, read-out: survival rate (viability) of cancer cells, Hep3B
Outline: as §1

C-33A = experiment: Cell viability analysis (WST-1), C-33A; settings: Table 4, repeated experiments, drug 10 μM; for viability at 10 µM: Homo sapiens, C-33-A, 72 h, read-out: survival rate (viability) of cancer cells, C-33A
Outline: as §1

MDA-MB231 = experiment: Cell viability analysis (WST-1), MDA-MB231; settings: Table 4, repeated experiments, drug 10 μM; for viability at 10 µM: Homo sapiens, MDA-MB-231, 72 h, read-out: survival rate (viability) of cancer cells, MDA-MB231
NIH-OVCAR-3 = experiment: Cell viability analysis (WST-1), NIH-OVCAR-3; settings: Table 4, repeated experiments, drug 10 μM; for viability at 10 µM: Homo sapiens, OVCAR-3, 72 h, read-out: survival rate (viability) of cancer cells, NIH-OVCAR-3
Outline: as §1

TOV-21G = experiment: Cell viability analysis (WST-1), TOV-21G; settings: Table 4, repeated experiments, drug 10 μM; for viability at 10 µM: Homo sapiens, TOV21G, 72 h, read-out: survival rate (viability) of cancer cells, TOV-21G
Outline: as §1

AsPC-1 = experiment: Cell viability analysis (WST-1), AsPC-1; settings: Table 4, repeated experiments, drug 10 μM; for viability at 10 µM: Homo sapiens, ASPC1, 72 h, read-out: survival rate (viability) of cancer cells, AsPC-1
Outline: as §1

BxPC-3 = experiment: Cell viability analysis (WST-1), BxPC-3; settings: Table 4, repeated experiments, drug 10 μM; for viability at 10 µM: Homo sapiens, BXPC-3, 72 h, read-out: survival rate (viability) of cancer cells, BxPC-3
Outline: as §1

SAS = experiment: Cell viability analysis (WST-1), SAS; settings: Table 4, repeated experiments, drug 10 μM; for viability at 10 µM: 72 h, read-out: survival rate (viability) of cancer cells, SAS
Outline: as §1

U2OS = experiment: Cell viability analysis (WST-1), U2OS; settings: Table 4, repeated experiments, drug 10 μM; for viability at 10 µM: Homo sapiens, U2OS, 72 h, read-out: survival rate (viability) of cancer cells, U2OS
Outline: as §1

BCC = experiment: Cell viability analysis (WST-1), BCC; settings: Table 4, repeated experiments, drug 10 μM; for viability at 10 µM: BCC, 72 h, read-out: survival rate (viability) of cancer cells, BCC
786-O = experiment: Cell viability analysis (WST-1), 786-O; settings: Table 4, repeated experiments, drug 10 μM; for viability at 10 µM: Homo sapiens, 786-0, 72 h, read-out: survival rate (viability) of cancer cells, 786-O
Outline: as §1

cancer cell lines = experiment: Growth inhibitory effects on the panel of cancer cell lines; settings: drug 10 μM, 72 hours, WST-1
Description: Subculture the different types of cancer cells.
For cell viability analysis, the cardiovascular drugs include peripheral vasodilator reaming enhancer, angiotensin converting agent inhibitor, hypotension and shock therapeutic agent, diuretic, antiarrhythmic agent, antiarralciton drug, antihypertensive agent, anticoagulant thrombolytic agent, cardiac tonic, intravenous (hemorrhoids) therapeutic agent, are used to test the inhibition effect of cancer cell.

## CC(C)c1c(C(=O)Nc2ccccc2)c(-c2ccccc2)c(-c2ccc(F)cc2)n1CC[C@@H](O)C[C@@H](O)CC(=O)[O-].CC(C)c1c(C(=O)Nc2ccccc2)c(-c2ccccc2)c(-c2ccc(F)cc2)n1CC[C@@H](O)C[C@@H](O)CC(=O)[O-].[Ca+2] [Atorvastatin calcium (Lipitor), Atorvastatin calcium]
[1]; 72 hours, WST-1
  survival rate (viability) of cancer cells, A375: 23.01
[2]; 72 hours, WST-1
  survival rate (viability) of cancer cells, HCT116: 82.55
[3]; 72 hours, WST-1
  survival rate (viability) of cancer cells, HepG2: 95.92
[4]; 72 hours, WST-1
  survival rate (viability) of cancer cells, HeLa: 78.64
[5]; 72 hours, WST-1
  survival rate (viability) of cancer cells, AGS: 31.48
[6]; 72 hours, WST-1
  survival rate (viability) of cancer cells, H1650: 69.55
[7]; 72 hours, WST-1
  survival rate (viability) of cancer cells, MKN-45: 84.18
[8]; 72 hours, WST-1
  survival rate (viability) of cancer cells, TSGH-8301: 70.59
[9]; 72 hours, WST-1
  survival rate (viability) of cancer cells, A549: 90.1462
[10]; 72 hours, WST-1
  survival rate (viability) of cancer cells, MCF-7: 79.08
[11]; 72 hours, WST-1
  survival rate (viability) of cancer cells, PC-3: 56.4832
[12]; 72 hours, WST-1
  survival rate (viability) of cancer cells, LoVo: 103.0307
T24; 72 hours
  survival rate (viability) of cancer cells, T24: 78.47
Hep3B; 72 hours
  survival rate (viability) of cancer cells, Hep3B: 91.86
C-33A; 72 hours
  survival rate (viability) of cancer cells, C-33A: 96.95
MDA-MB231; 72 hours
  survival rate (viability) of cancer cells, MDA-MB231: 47.84
NIH-OVCAR-3; 72 hours
  survival rate (viability) of cancer cells, NIH-OVCAR-3: 98.3
TOV-21G; 72 hours
  survival rate (viability) of cancer cells, TOV-21G: 34.04
AsPC-1; 72 hours
  survival rate (viability) of cancer cells, AsPC-1: 81.1
BxPC-3; 72 hours
  survival rate (viability) of cancer cells, BxPC-3: 81.03
SAS; 72 hours
  survival rate (viability) of cancer cells, SAS: 76.29
U2OS; 72 hours
  survival rate (viability) of cancer cells, U2OS: 86.25
BCC; 72 hours
  survival rate (viability) of cancer cells, BCC: 41.49
786-O; 72 hours
  survival rate (viability) of cancer cells, 786-O: 32.54
Cancer cell lines
  inhibition effect on different cancer cell lines (in words): significant inhibition effect

## COCCOC(=O)C1=C(C)NC(C)=C(C(=O)OC/C=C/c2ccccc2)C1c1cccc([N+](=O)[O-])c1 (stereo not shown) [Cilnidipine]
[1]
  viability at 10 µM: 47.1%
[2]
  viability at 10 µM: 88.6%
[3]
  viability at 10 µM: 77.1%
[4]
  viability at 10 µM: 64.3%
[5]
  viability at 10 µM: 76.9%
[6]
  viability at 10 µM: 69%
[7]
  viability at 10 µM: 105%
[8]
  viability at 10 µM: 95.9%
[9]
  viability at 10 µM: 67.8%
[10]
  viability at 10 µM: 64.6%
[11]
  viability at 10 µM: 61.4%
[12]
  viability at 10 µM: 53.7%
T24
  viability at 10 µM: 108%
Hep3B
  viability at 10 µM: 92.7%
C-33A
  viability at 10 µM: 93%
MDA-MB231
  viability at 10 µM: 86.3%
NIH-OVCAR-3
  viability at 10 µM: 75.9%
TOV-21G
  viability at 10 µM: 62.9%
AsPC-1
  viability at 10 µM: 57.6%
BxPC-3
  viability at 10 µM: 68.7%
SAS
  viability at 10 µM: 38.9%
U2OS
  viability at 10 µM: 43.1%
BCC
  viability at 10 µM: 60.2%
786-O
  viability at 10 µM: 86.7%
Cancer cell lines
  inhibition effect on different cancer cell lines (in words): significant inhibition effect

## CC(C)N(CCC(C(N)=O)(c1ccccc1)c1ccccn1)C(C)C (stereo not shown) [Disopyramide Phosphate]
[1]
  viability at 10 µM: 114%
[2]
  viability at 10 µM: 94%
[3]
  viability at 10 µM: 109%
[4]
  viability at 10 µM: 103%
[5]
  viability at 10 µM: 95.9%
[6]
  viability at 10 µM: 90.5%
[7]
  viability at 10 µM: 111%
[8]
  viability at 10 µM: 115%
[9]
  viability at 10 µM: 99.4%
[10]
  viability at 10 µM: 107%
[11]
  viability at 10 µM: 103%
[12]
  viability at 10 µM: 105%
T24
  viability at 10 µM: 87.6%
Hep3B
  viability at 10 µM: 113%
C-33A
  viability at 10 µM: 98.5%
MDA-MB231
  viability at 10 µM: 98.8%
NIH-OVCAR-3
  viability at 10 µM: 103%
TOV-21G
  viability at 10 µM: 94.3%
AsPC-1
  viability at 10 µM: 77.2%
BxPC-3
  viability at 10 µM: 69.9%
SAS
  viability at 10 µM: 96.9%
U2OS
  viability at 10 µM: 98.7%
BCC
  viability at 10 µM: 110%
786-O
  viability at 10 µM: 102%
Cancer cell lines
  inhibition effect on different cancer cell lines (in words): significant inhibition effect

## OC(CNCC(O)C1CCc2cc(F)ccc2O1)C1CCc2cc(F)ccc2O1 (stereo not shown) [Nebivolol(Bystolic), Nebivolol]
[1]
  viability at 10 µM: 44.9%
[2]
  viability at 10 µM: 81.9%
[3]
  viability at 10 µM: 42.1%
[4]
  viability at 10 µM: 52%
[5]
  viability at 10 µM: 26.6%
[6]
  viability at 10 µM: 87.4%
[7]
  viability at 10 µM: 52.8%
[8]
  viability at 10 µM: 38%
[9]
  viability at 10 µM: 49%
[10]
  viability at 10 µM: 27%
[11]
  viability at 10 µM: 37%
[12]
  viability at 10 µM: 85.3%
T24
  viability at 10 µM: 97.6%
Hep3B
  viability at 10 µM: 44.8%
C-33A
  viability at 10 µM: 77%
MDA-MB231
  viability at 10 µM: 66.4%
NIH-OVCAR-3
  viability at 10 µM: 86.8%
TOV-21G
  viability at 10 µM: 86.2%
AsPC-1
  viability at 10 µM: 88.7%
BxPC-3
  viability at 10 µM: 74.4%
SAS
  viability at 10 µM: 75.6%
U2OS
  viability at 10 µM: 66.6%
BCC
  viability at 10 µM: 55.8%
786-O
  viability at 10 µM: 38.3%
Cancer cell lines
  inhibition effect on different cancer cell lines (in words): significant inhibition effect
